One experiment deals with O-acyltransferase (Oryctolagus cuniculus, UniProt G1SFD9). Nature of the experiment: Acyl coenzyme A:cholesterol acyltransferase (ACAT), inhibition by incubation with [1-14C]oleolyl-CoA and intestinal microsomes isolated from intestinal mucosa of cholesterol-fed rabbits.
Experiment [1] can be described thus: Tested in vivo for plasma total cholesterol(TC) in cholic acid (0.3%)-cholesterol (1.5%)-peanut oil (5.5%) fed rats. It is filed as functional.
The test system of another experiment is Rattus norvegicus. Nature of the experiment: In vivo change in plasma total cholesterol in cholic acid (0.3%)-cholesterol (1.5%)-peanut oil(5.5%) fed rats dosed at 0.05% of diet.
Experiment [2] has as its target T1, Acyl-CoA:cholesterol acyltransferase (Oryctolagus cuniculus) (UniProt Q95214).
T1 sequence (whole entry): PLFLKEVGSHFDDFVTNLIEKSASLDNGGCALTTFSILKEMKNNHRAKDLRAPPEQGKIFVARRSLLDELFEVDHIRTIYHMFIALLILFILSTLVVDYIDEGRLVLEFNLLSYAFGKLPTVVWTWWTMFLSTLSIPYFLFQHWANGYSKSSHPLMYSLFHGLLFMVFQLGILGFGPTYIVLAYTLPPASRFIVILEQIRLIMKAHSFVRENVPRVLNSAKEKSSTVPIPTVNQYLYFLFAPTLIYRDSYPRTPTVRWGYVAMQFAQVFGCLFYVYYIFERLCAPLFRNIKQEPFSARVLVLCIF
Nature of the experiment: Tested in vitro against intestinal Acyl coenzyme A:cholesterol acyltransferase by incubation with [1-14C]oleolyl-CoA in intestinal microsomes isolated from intestinal mucosa of cholesterol-fed rabbits. Conditions: Microsome, concentration not given here.

Structures are written as SMILES.

Chain of O-acyltransferase (G1SFD9 1-524): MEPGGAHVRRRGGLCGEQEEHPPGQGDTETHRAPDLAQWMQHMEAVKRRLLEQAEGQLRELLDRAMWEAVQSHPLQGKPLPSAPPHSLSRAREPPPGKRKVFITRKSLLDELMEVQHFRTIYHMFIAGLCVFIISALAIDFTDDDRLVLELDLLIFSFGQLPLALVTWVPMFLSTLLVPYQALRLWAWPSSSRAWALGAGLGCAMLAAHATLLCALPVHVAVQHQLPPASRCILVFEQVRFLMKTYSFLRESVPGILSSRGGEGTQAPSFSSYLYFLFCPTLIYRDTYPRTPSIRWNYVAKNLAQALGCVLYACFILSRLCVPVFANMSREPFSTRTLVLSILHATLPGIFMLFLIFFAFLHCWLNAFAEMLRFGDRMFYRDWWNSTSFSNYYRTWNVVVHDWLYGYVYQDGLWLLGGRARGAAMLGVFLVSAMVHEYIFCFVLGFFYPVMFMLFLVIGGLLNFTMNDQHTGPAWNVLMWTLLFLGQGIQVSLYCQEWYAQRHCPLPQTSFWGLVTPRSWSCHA

The molecule `CCCCCCCCCCCCCCCCCCNC(=O)Nc1c(OC)cc(OC)cc1OC` yielded an IC50 against O-acyltransferase of 900 nM. In turn, `CCCCCCCCCCCCCCCCCCSc1c(C)cccc1C` showed an IC50 against O-acyltransferase greater than 10000 nM. Same read-out and setting: to `CCCCCCCCCCCCCCCCCCSC(=O)Nc1c(C)cccc1C` belongs greater than 10000 nM.

In turn, `CCCCCCCC/C=C\CCCCCCCCNC(=O)Nc1c(OC)cc(OC)cc1OC` gave an IC50 at O-acyltransferase of 320 nM. Besides, the Change in experiment [1] is reported as -25%. At O-acyltransferase, `CCCCCCCCCCCCCCNC(=O)Nc1c(C)cccc1Cl` showed an IC50 of 70 nM. Moreover, in the experiment with Rattus norvegicus, the Change is 0%.

`CCCCCCCCCCCCCCCCCCOC(=O)Nc1c(C)cccc1C` gave an IC50 on O-acyltransferase greater than 10000 nM.

Turning to `CCCCCCCCCCCCCCNC(=O)Nc1c(Br)cc(CC)cc1Br`, the half-inhibitory concentration (IC50) at O-acyltransferase amounted to 520 nM. `CCCCCCCCCCC(CC)(CC)CNC(=O)Nc1c(C(C)C)cccc1C(C)C`: the half-maximal inhibitory concentration (IC50) at O-acyltransferase was determined as 50 nM. The same measure, in the same setting: to `CCCCCCCC/C=C\CCCCCCCCNC(=O)Nc1cc(C)ccc1C` belongs 4500 nM. At O-acyltransferase, `CCCCCCCCCCC1(NC(=O)Nc2c(C(C)C)cccc2C(C)C)CCCC1` registered an IC50 of 46 nM. The Change with Rattus norvegicus is -53%.

The molecule `CCCCCCCCCCCCCCCCS(=O)(=O)Nc1c(OC)cc(OC)cc1OC` displayed a concentration for half-maximal inhibition (IC50) on O-acyltransferase of 690 nM. For `CCCCCCCC/C=C\CCCCCCCCNC(=O)Nc1c(CC)cccc1CC`, the 50% inhibitory concentration (IC50) at O-acyltransferase came to 43 nM. Besides, the Change with Rattus norvegicus is -26%. For the molecule `CCCCCCCC/C=C/CCCCCCCC(=O)Nc1c(OC)cc(OC)cc1OC`, the IC50 on O-acyltransferase stood at 44 nM. In the experiment with Rattus norvegicus, the Change was -38%. The like results for `CCCCCCCC/C=C\CCCCCCCCNC(=O)Nc1c(C)cccc1C` were, in that order, 160 nM and -55%.

Take `CNC(=O)Nc1c(C(C)C)cccc1C(C)C`: the IC50 at O-acyltransferase is greater than 5000 nM. Molecule `CCCCCCCC/C=C\CCCCCCCCNCc1c(OC)cc(OC)cc1OC` gave an IC50 against O-acyltransferase greater than 100000 nM.

With `CCCCCCCCCCC(C)(C)NC(=O)Nc1c(CC)cccc1CC`, the IC50 on O-acyltransferase amounted to 52 nM. For the same molecule, the Change with Rattus norvegicus is -60%. On O-acyltransferase, `CCCCCCCCCCCCCCCCC(C)(C)CNC(=O)Nc1c(C(C)C)cccc1C(C)C` showed an IC50 of 73 nM. As for `CCCCCCCC/C=C\CCCCCCCC(=O)Nc1c(C)cccc1C`, in the experiment with Rattus norvegicus, the Change was -38%. The molecule `CCCCCCCC/C=C\CCCCCCCCNC(=O)Nc1ccccc1CC` returned an IC50 at O-acyltransferase of 980 nM. The Change in the experiment with Rattus norvegicus was -28%. For `CCCCCCCCCCCCCCNC(=O)Nc1c(F)cc(F)cc1F`, on O-acyltransferase, inhibition was half-maximal at 250 nM (IC50).

In experiment [2], `CCCCCCCC/C=C\CCCCCCCC(O)c1c(OC)cc(OC)cc1OC` (configuration not stated) returned an inhibition of 6%. With `CCCCCCCC/C=C\CCCCCCCCNC(=O)Nc1ccc(C)cc1C`, the IC50 at O-acyltransferase is greater than 5000 nM.

For `CCCCCCCC/C=C\CCCCCCCCNC(=O)Nc1ccc(OC)cc1OC`, it took 5400 nM to reach half-maximal inhibition against O-acyltransferase (IC50).

For `CCCCCCCCCCCCCCCCCCSC(=O)Nc1c(OC)cc(OC)cc1OC`, the IC50 at O-acyltransferase came out at 5700 nM.

As to `CCCCCCCC/C=C\CCCCCCCCNC(=O)Nc1ccccc1`, the 50% inhibitory concentration (IC50) against O-acyltransferase is greater than 5000 nM. `CCCCCCCCCCNC(=O)Nc1c(C(C)C)cccc1C(C)C` showed a half-inhibitory concentration (IC50) at O-acyltransferase of 56 nM. The Change in the experiment on Rattus norvegicus was -64%. Regarding `CCCCCCCC/C=C\CCCCCCCCNC(=O)Nc1c(Cl)cc(Cl)cc1Cl`, 1200 nM corresponded to half-maximal inhibition against O-acyltransferase (IC50). The same measure, in the same setting: to `CCCCCCCCCCCCCCCCCC[S+]([O-])c1c(C)cccc1C` (configuration not stated) belongs greater than 10000 nM; to `CCCCCCCCCCCCCCCCCCNC(=O)Nc1c(C)cccc1Cl`, 1100 nM; to `CCCCCCCCCC(C)(C)CNC(=O)Nc1c(C(C)C)cccc1C(C)C`, 46 nM. In turn, `CCCCCCCCCCC(C)(C)CNC(=O)Nc1c(C(C)C)cccc1C(C)C` yielded an IC50 against O-acyltransferase of 47 nM. On the same count and under the same terms, to `CCCCCCCC/C=C\CCCCCCCCOC(=O)Nc1c(OC)cc(OC)cc1OC` belongs 860 nM; to `CCCCCCCC/C=C\CCCCCCCCNC(=O)Nc1ccccc1OC`, 3300 nM. On the same count and under the same terms, to `CCCCCCCCCCCCCCCCCCNC(=O)c1c(C)cccc1C` belongs greater than 10000 nM. With `CCCCCCCCCCCCCCNC(=O)Nc1ccc(F)cc1F`, the half-maximal inhibitory concentration (IC50) against O-acyltransferase was 340 nM.

Molecule `CCCCCCCC/C=C\CCCCCCCCOC(=O)c1c(OC)cc(OC)cc1OC` came in with a 50% inhibitory concentration (IC50) on O-acyltransferase greater than 5000 nM.

On O-acyltransferase, `CCCCCCCCCCCCCCCCCCNC(=O)Oc1c(C)cccc1C` showed an IC50 of 3100 nM. In turn, `CCCCCCCC/C=C\CCCCCCCC(=O)Oc1c(C)cccc1C` returned an IC50 at O-acyltransferase greater than 10000 nM. At O-acyltransferase, `CCCCCCCC/C=C\CCCCCCCCNC(=O)c1c(C)cccc1C` came in with a half-maximal inhibitory concentration (IC50) of 9800 nM. The molecule `CCCCCCCC/C=C\CCCCCCCCNC(=O)Nc1c(C(C)C)cccc1C(C)C` displayed an IC50 at O-acyltransferase of 28 nM. In the experiment with Rattus norvegicus, the Change is -45%. With `CCCCCCCCCCCCCCCCCC(=O)Oc1c(C)cccc1C`, at O-acyltransferase, the IC50 was greater than 10000 nM.

Molecule `CCCCCCCCCCCCCCNC(=O)Nc1cccc(C(F)(F)F)c1` showed an IC50 against O-acyltransferase greater than 2500 nM.

With `CCCCCCCCCCCCCCCCCCNC(=O)Nc1c(C(C)C)cccc1C(C)C`, the half-maximal inhibitory concentration (IC50) at O-acyltransferase stood at 48 nM. Also, in the experiment on Rattus norvegicus, the Change is -7%. For the molecule `CCCCCCCCCCCCCCCCCCOc1c(C)cccc1C`, on O-acyltransferase, the half-maximal inhibitory concentration (IC50) is greater than 10000 nM.

Regarding `CCCCCCCCCCCCCCCCCCNC(=O)Nc1c(C)cccc1C`, the concentration for half-maximal inhibition (IC50) at O-acyltransferase stood at 610 nM.

On to `CCCCCCCCCCCCCCNC(=O)Nc1c(CC)cccc1CC`, for which the IC50 against O-acyltransferase came out at 21 nM. Moreover, the Change with Rattus norvegicus is -38%.

On O-acyltransferase, `CCCCCCCC/C=C\CCCCCCCCNC(=O)Nc1c(C)cc(C)cc1C` gave an IC50 of 2900 nM. With `CCCCCCCC/C=C\CCCCCCCCNC(=O)Nc1c(Cl)cccc1Cl`, the midpoint of inhibition on O-acyltransferase, the IC50, lay at 400 nM. For the same molecule, the Change with Rattus norvegicus is -47%.

At O-acyltransferase, `CCCCCCCC/C=C\CCCCCCCCNC(=O)Nc1c(C)cccc1Cl` had a 50% inhibitory concentration (IC50) of 180 nM. In addition, the Change in the experiment on Rattus norvegicus is -42%. For the molecule `CCCCCCCCCCNC(=O)Nc1c(CC)cccc1CC`, the IC50 at O-acyltransferase was 100 nM. Still for that read-out and setting: to `CCCCCCCC/C=C\CCCCCCCC(=O)c1c(OC)cc(OC)cc1OC` belongs greater than 50000 nM; to `CCCCNC(=O)Nc1c(C(C)C)cccc1C(C)C`, 630 nM; to `CCCCCCCC/C=C\CCCCCCCC(=O)NCc1c(OC)cc(OC)cc1OC`, 6800 nM.

At O-acyltransferase, `CCCCCCCC/C=C\CCCCCCCCNC(=O)Nc1c(CC)cccc1C(C)C` came in with a half-maximal inhibitory concentration (IC50) of 37 nM. Also, the Change in the experiment on Rattus norvegicus was -41%. With `CCCCCCCCCCCCCCCCCC(=O)Nc1c(OC)cc(OC)cc1OC`, the Change with Rattus norvegicus is -11%. On O-acyltransferase, `CCCCCCCC/C=C\CCCCCCCCNC(=O)c1c(OC)cc(OC)cc1OC` had a half-inhibitory concentration (IC50) of 9400 nM. On O-acyltransferase, `CCCCCCCC/C=C\CCCCCCC/C(S)=N/c1c(OC)cc(OC)cc1OC` yielded an IC50 of 900 nM. The Change in the experiment on Rattus norvegicus is -22%.

On O-acyltransferase, `CCCCCCCCCCC1(NC(=O)Nc2c(CC)cccc2CC)CCCC1` returned a 50% inhibitory concentration (IC50) of 110 nM. On to `CCCCCCCCCCNC(=O)Nc1c(CC)cccc1C(C)C`, for which, on O-acyltransferase, it took 87 nM to reach half-maximal inhibition (IC50). Further, the Change in the experiment with Rattus norvegicus was -61%. For the molecule `CCCCCCCCCCCCCCNC(=O)Nc1c(CC)cccc1C(C)C`, it took 18 nM to reach half-maximal inhibition at O-acyltransferase (IC50). In the experiment on Rattus norvegicus, the Change is -41%. As for `CCCCCCCC/C=C\CCCCCCCCNC(=O)Nc1ccc(F)cc1F`, at O-acyltransferase, the IC50 came out at 4700 nM. In the case of `CCCCCCCC/C=C\CCCCCCCCNC(=O)Nc1ccc(Oc2ccccc2)cc1`, the IC50 against O-acyltransferase is greater than 5000 nM. At O-acyltransferase, `CCCCCCCCCCNC(=O)Nc1c(C)cccc1C(C)C` had an IC50 of 210 nM. `CCCCCCCCCCCCCCCCCCNC(=O)Sc1c(C)cccc1C` had a half-inhibitory concentration (IC50) against O-acyltransferase of 2460 nM. The molecule `CCCCCCCCCCCCCCCCCCNC(=O)NCc1c(OC)cc(OC)cc1OC` yielded an IC50 against O-acyltransferase greater than 5000 nM. Same read-out and setting: to `CCCCCCCCCCCCCCCCCCOC(=O)Nc1c(OC)cc(OC)cc1OC` belongs 7100 nM; to `CCCCCCCCCCNC(=O)Nc1c(C)cccc1C(C)(C)C`, 200 nM. `CCCCCCCCCCC(C)(C)NC(=O)Nc1c(C(C)C)cccc1C(C)C`: the half-maximal inhibitory concentration (IC50) at O-acyltransferase came out at 45 nM. In addition, the Change with Rattus norvegicus was -60%.

In turn, `CCCCCCNC(=O)Nc1c(C(C)C)cccc1C(C)C` yielded an IC50 at O-acyltransferase of 99 nM. As to `CCCCCCCC/C=C\CCCCCCCC/N=C(\S)Nc1c(C)cccc1C`, the Change in the experiment on Rattus norvegicus was -17%. As for `CCCCCCCCCCC(C)(C)NC(=O)Nc1ccccc1CC`, it took 500 nM to reach half-maximal inhibition against O-acyltransferase (IC50). The same measure, in the same setting: to `CCCCCCCC/C=C\CCCCCCCCNC(=S)Nc1c(C)cccc1C` belongs 5400 nM.

In general, IC50 refers to the concentration that gives 50% inhibition. A lower IC50 goes with higher potency. What is called inhibition is the percentage by which the read-out fell short of the control. Read a low inhibition as little suppression.

Source of the values: ChEMBL document CHEMBL1126708, “Inhibitors of acyl-CoA:cholesterol acyltransferase (ACAT). 2. Modification of fatty acid anilide ACAT inhibitors: bioisosteric replacement of the amide bond” (J Med Chem, 1993).
